Our source for the EC50 and Ki values is patent US9617310B2 (priority 2013, dated 2017).

For test [1], the system named is genotype 1b stable HCV replicon (Con1) in Huh-7-derived cells. In words: Stable subgenomic HCV replicon, genotype 1b, Renilla luciferase. In kind it is cell-based. As to conditions: Hepatitis C virus, stable replicon genotype 1b, 72 h, read-out: EC50 1B RLUC. In short, it runs like this:
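Replicons carry hRLuc-neo, EMCV IRES and NS3-NS5B with adaptive mutations: 1a H77 P1496L/S2204I, 1b Con1 E1202G/T1280I/K1846T, 4a ED43 Q1691R/S2204I. EC50 came from non-linear regression versus DMSO and a triple-inhibitor full-inhibition control.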

The next test addresses T1, NS3 genotype 3a protease (UniProt Q81258).
T1 construct: Purified NS3 protease domain (amino acids 1-181) of the genotype 1b and 3a virus were generated as above; fused on or other part: N-terminal hexahistidine tag with an rTEV protease cleavage site (vector p28-N6H-Tev-NS3(181)3)
T1 sequence (Q81258 1033-1663): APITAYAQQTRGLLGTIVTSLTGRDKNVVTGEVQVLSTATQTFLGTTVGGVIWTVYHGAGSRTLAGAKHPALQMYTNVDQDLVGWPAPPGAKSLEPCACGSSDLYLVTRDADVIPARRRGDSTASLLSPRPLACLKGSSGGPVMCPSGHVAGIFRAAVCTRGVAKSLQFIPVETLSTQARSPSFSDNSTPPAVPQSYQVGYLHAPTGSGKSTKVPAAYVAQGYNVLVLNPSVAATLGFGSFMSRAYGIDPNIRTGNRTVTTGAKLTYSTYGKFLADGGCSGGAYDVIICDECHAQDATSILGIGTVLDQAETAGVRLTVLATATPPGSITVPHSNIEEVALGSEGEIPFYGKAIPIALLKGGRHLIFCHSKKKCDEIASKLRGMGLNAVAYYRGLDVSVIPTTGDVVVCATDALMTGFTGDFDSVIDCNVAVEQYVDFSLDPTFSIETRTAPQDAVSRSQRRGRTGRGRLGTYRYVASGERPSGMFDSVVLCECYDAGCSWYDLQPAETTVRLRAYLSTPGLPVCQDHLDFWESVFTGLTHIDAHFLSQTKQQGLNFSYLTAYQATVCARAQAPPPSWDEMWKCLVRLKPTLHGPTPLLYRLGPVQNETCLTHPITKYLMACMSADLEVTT
Nature of the test: Ki determination, NS3 protease genotype 3a (fluorogenic depsipeptide substrate). In kind it is biochemical, hepatitis C virus. To be noted: NS3 protease domain genotype 3a, NS4A peptide. From the text: (§1) Ki Determination for Genotypes 1b and 3a NS3 Protease.
(§2) Purified NS3 protease domain (amino acids 1-181) of the genotype 1b and 3a virus were generated as above. The internally quenched fluorogenic depsipeptide substrate Ac-DED(Edans)-EEAbuψ[COO]ASK(Dabcyl)-NH2 and a synthetic peptide containing the hydrophobic core residues of the NS4A protein cofactor ([…]; NS4A peptide) were obtained from Anaspec, Inc. (San Jose, Calif.). Other chemicals and biochemicals were of reagent grade or better and were purchased from standard suppliers.
(§3) Reactions were run at room temperature in buffer consisting of 50 mM HEPES, 40% glycerol, 0.05% Triton X-100, 10 mM DTT, and 10% DMSO. The final assay solutions contained 50 pM NS3 genotype 1b protease or 200 pM genotype 3a protease, 20 μM NS4A peptide, and 4 μM substrate (genotype 1b) or 2 μM substrate (genotype 3a). Inhibitor concentrations varied from 100 nM to 5 pM in 3-fold dilutions, and no-inhibitor controls were included.
(§4) Compound dilutions were made in DMSO at 20× final concentration. Reaction mixtures were prepared in 96-well assay plates. A solution of enzyme and NS4A peptide in assay buffer (25 μL volume with both reagents at 4× final concentration) was mixed with 45 μL assay buffer and 5 μL of either inhibitor or DMSO, and pre-incubated at room temperature for 1 hour. The reaction was started by addition of 25 μL substrate solution at 4× final concentration. Plates were mixed vigorously for 5-10 seconds and reactions were allowed to proceed for 90 minutes. Fluorescence was measured every 30 s between 90 and 120 minutes reaction time using a Tecan InfiniTe M1000 or PerkinElmer Envision multimode plate reader with an excitation wavelength of 340 nm and an emission wavelength of 490 nm.
(§5) Rates were calculated from the progress curves at steady state, in the time frame of 90-120 minutes after addition of substrate. To determine the Ki, rates were plotted as a function of inhibitor concentration, and the data were fit with equation 1 (Morrison, J. F., Biochimica et Biophysica Acta 1969, 185, 269-286) to calculate Ki^app using GraphPad Prism 5. Active fraction of enzyme was determined by active site titration with known potent inhibitors. Ki was calculated from Ki^app/(1+[[S]/Km]).

A further test addresses T2, NS3 genotype 1b protease (Hepatitis C virus genotype 1b, UniProt Q9WMX2, E1202G).
T2 construct: Purified NS3 protease domain (amino acids 1-181) of the genotype 1b and 3a virus were generated as above; K3 hexahistidine tag (N); rTEV protease cleavage site (N); made in house; host or cells: E. coli BL21AI
In words: Ki determination, NS3 protease genotype 1b (fluorogenic depsipeptide substrate). In kind it is biochemical. As to conditions: NS3 protease domain genotype 1b, NS4A peptide.
Description: as §1, §2, §3, §4, §5

T2 sequence (Q9WMX2 1027-1207 E1202G, other chains not shown): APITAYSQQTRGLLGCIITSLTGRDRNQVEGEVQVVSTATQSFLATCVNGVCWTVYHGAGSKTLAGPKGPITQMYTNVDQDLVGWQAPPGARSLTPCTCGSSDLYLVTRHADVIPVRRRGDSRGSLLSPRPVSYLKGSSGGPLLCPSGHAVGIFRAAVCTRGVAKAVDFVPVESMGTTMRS

For `COc1ccc2nc3c(nc2c1)O[C@@H]1C[C@@H](C(=O)N[C@]2(C(=O)NS(=O)(=O)C4(C)CC4)C[C@H]2C(F)F)N(C1)C(=O)[C@H](C(C)(C)C)NC(=O)O[C@@H]1[C@H]2CC[C@H](C2)[C@H]1CCCCC3` [Example 5, (1R,4S,4aR,8S,11S,13R,25aR)-8-tert-butyl-N-[(1R,2R)-2-(difluoromethyl)-1-{[(1-methylcyclopropyl)sulfonyl]carbamoyl}cyclopropyl]-17-methoxy-6,9-dioxo-2,3,4,4a,6,7,8,9,12,13,21,22,23,24,25,25a-hexadecahydro-1H,11H-1, 4:10,13-dimethanoquinoxalino[2,3-k][1,10,3,6]benzodioxadiazacyclononadecine-11-carboxamide], the EC50 in test [1] was 3.5 nM. Besides, the figures for the Ki on NS3 genotype 3a protease and at NS3 genotype 1b protease were 0.27 nM and 0.02 nM, respectively.
The like results for `COc1ccc2nc3c(nc2c1)O[C@@H]1C[C@@H](C(=O)N[C@]2(C(=O)NS(=O)(=O)C4CC4)C[C@H]2C(F)F)N(C1)C(=O)[C@H](C(C)(C)C)NC(=O)O[C@H]1[C@H](CCCCC3)C[C@H]2C[C@H]21` [Example 7, (1aR,1bS,5S,8S,10R,22aR,23aR)-5-tert-butyl-N-[(1R,2R)-1-[(cyclopropylsulfonyl)carbamoyl]-2-(difluoromethyl)cyclopropyl]-14-methoxy-3,6-dioxo-1a,1b,3,4,5,6,9,10,18,19,20,21,22,22a,23,23a-hexadecahydro-1H,8H-7,10-methanocyclopropa[3′,40]cyclopenta[1′,2′:18,19][1,10,3,6]dioxadiazacyclononadecino[11,12-b]quinoxaline-8-carboxamide] were, in that order, 82 nM, 9.5 nM and 0.05 nM.
Consider `COc1ccc2nc3c(nc2c1)O[C@@H]1C[C@@H](C(=O)N[C@]2(C(=O)NS(=O)(=O)C4(C)CC4)C[C@H]2C(F)F)N(C1)C(=O)[C@H](C(C)(C)C)NC(=O)O[C@H]1[C@H](CCCCC3)C[C@H]2C[C@H]21` [Example 8, (1aR,1bS,5S,8S,10R,22aR,23aR)-5-tert-butyl-N-[(1R,2R)-2-(difluoromethyl)-1-{[(1-methylcyclopropyl)sulfonyl]carbamoyl}cyclopropyl]-14-methoxy-3,6-dioxo-1a,1b,3,4,5,6,9,10,18,19,20,21,22,22a, 23,23a-hexadecahydro-1H,8H-7,10-methanocyclopropa[3′,4′]cyclopenta [1′,2′:18,19][1,10,3,6]dioxadiazacyclononadecino[11,12-b]quinoxaline-8-carboxamide], for which the EC50 in test [1] worked out at 55 nM. Moreover, the Ki on NS3 genotype 3a protease was 8.5 nM; at NS3 genotype 1b protease, 0.04 nM.
For `COc1ccc2nc3c(nc2c1)O[C@@H]1C[C@@H](C(=O)N[C@]2(C(=O)NS(=O)(=O)C4(C)CC4)C[C@H]2C(F)F)N(C1)C(=O)[C@H](C(C)(C)C)NC(=O)O[C@@H]1C[C@@H]2C[C@@H]2[C@H]1CCCCC3(F)F` [Example 10, (1aS,2aR,6S,9S,11R,23aR,23bS)-6-tert-butyl-N-[(1R,2R)-2-(difluoromethyl)-1-{[(1-methylcyclopropyl)sulfonyl]carbamoyl}cyclopropyl]-19,19-difluoro-15-methoxy-4,7-dioxo-1a,2,2a,4,5,6,7,10,11,19,20,21,22,23,23a,23b-hexadecahydro-1H,9H-8,11-methanocyclopropa [4′,5′]cyclopenta[1′,2′:18,19][1,10,3,6]dioxadiazacyclononadecino[11,12-b]quinoxaline-9-carboxamide], in test [1], the EC50 was found to be 1.4 nM. In addition, the Ki at NS3 genotype 3a protease and at NS3 genotype 1b protease was 0.02 nM in each case.
On to `CC(C)(C)[C@@H]1NC(=O)O[C@@H]2C[C@@H]3C[C@@H]3[C@H]2CCCCCc2nc3ccc(F)cc3nc2O[C@@H]2C[C@@H](C(=O)N[C@]3(C(=O)NS(=O)(=O)C4(C)CC4)C[C@H]3C(F)F)N(C2)C1=O` [Example 11, (1aS,2aR,6S,9S,11R,23aR,23bS)-6-tert-butyl-N-[(1R,2R)-2-(difluoromethyl)-1-{[(1-methylcyclopropyl)sulfonyl]carbamoyl}cyclopropyl]-15-fluoro-4,7-dioxo-1a,2,2a,4,5,6,7,10,11,19,20,21,22,23,23a,23b-hexadecahydro-1H,9H-8,11-methanocyclopropa[4′,5′]cyclopenta[1′,2′:18,19][1,10,3,6]dioxadiazacyclononadecino[11,12-b]quinoxaline-9-carboxamide], for which, in test [1], the EC50 is 1.3 nM. The figures for the Ki at NS3 genotype 3a protease and at NS3 genotype 1b protease were 0.09 nM and 0.02 nM, respectively.
For the compound `CC(C)(C)[C@@H]1NC(=O)O[C@@H]2C[C@@H]3C[C@@H]3[C@H]2CCCCCc2nc3ccc(F)cc3nc2O[C@@H]2C[C@@H](C(=O)N[C@]3(C(=O)NS(=O)(=O)C4CC4)C[C@H]3C(F)F)N(C2)C1=O` [Example 12, (1aS,2aR,6S,9S,11R,23aR,23bS)-6-tert-butyl-N-[(1R,2R)-1-[(cyclopropylsulfonyl)carbamoyl]-2-(difluoromethyl)cyclopropyl]-15-fluoro-4,7-dioxo-1a,2,2a,4,5,6,7,10,11,19,20,21,22,23,23a,23b-hexadecahydro-1H,9H-8,11-methanocyclopropa[4′,5′]cyclopenta[1′,2′:18,19][1,10,3,6]dioxadiazacyclononadecino[11,12-b]quinoxaline-9-carboxamide], in test [1], the EC50 amounted to 1.3 nM. Further, the values for the Ki on NS3 genotype 3a protease and on NS3 genotype 1b protease were 0.09 nM and 0.02 nM, respectively.
The matching figures for `CC(C)(C)[C@@H]1NC(=O)O[C@@H]2C[C@@H]3C[C@@H]3[C@H]2CC/C=C/C(F)(F)c2nc3ccc(C#N)cc3nc2O[C@@H]2C[C@@H](C(=O)N[C@]3(C(=O)NS(=O)(=O)C4(C)CC4)C[C@H]3C(F)F)N(C2)C1=O` [Example 13, (1aS,2aR,6S,9S,11R,20E,23aR,23bS)-6-tert-butyl-15-cyano-N-[(1R,2R)-2-(difluoromethyl)-1-{[(1-methylcyclopropyl)sulfonyl]carbamoyl}cyclopropyl]-19,19-difluoro-4,7-dioxo-1a,2,2a,4,5,6,7,10,11,19,22,23,23a,23b-tetradecahydro-1H,9H-8,11-methanocyclopropa[4′,5′]cyclopenta[1′,2′18,19][1,10,3,6]dioxadiazacyclononadecino[11,12-b]quinoxaline-9-carboxamide]: 3 nM, 0.03 nM and 0.02 nM.
Take `CC(C)(C)[C@@H]1NC(=O)O[C@@H]2C[C@@H]3C[C@@H]3[C@H]2CCCCC(F)(F)c2nc3ccc(C#N)cc3nc2O[C@@H]2C[C@@H](C(=O)N[C@]3(C(=O)NS(=O)(=O)C4(C)CC4)C[C@H]3C(F)F)N(C2)C1=O` [Example 14, (1aS,2aR,6S,9S,11R,23aR,23bS)-6-tert-butyl-15-cyano-N-[(1R,2R)-2-(difluoromethyl)-1-{[(1-methylcyclopropyl)sulfonyl]carbamoyl}cyclopropyl]-19,19-difluoro-4,7-dioxo-1a,2,2a,4,5,6,7,10,11,19,20,21,22,23,23a,23b-hexadecahydro-1H,9H-8,11-methanocyclopropa[4′,5′]cyclopenta [1′,2′:18,19][1,10,3,6]dioxadiazacyclononadecino[11,12-b]quinoxaline-9-carboxamide]: the EC50 in test [1] came out at 1.1 nM. The Ki on NS3 genotype 3a protease and at NS3 genotype 1b protease was 0.01 nM in each case.
